For experiment [1], the system named is 4T1 breast tumors. As to the kind of experiment: 4T1-bearing mice, doxorubicin ±MitoTEMPO. The experiment is classed as in vivo, mouse. To be noted: doxorubicin 4 mg/kg i.v. weekly ×3 + MitoTEMPO 0.7 mg/kg i.p. daily; lungs day +21. As for the experimental part: On day −8, nine-week-old female Balb/cJRj mice (Janvier®) were injected with 200,000 viable 4T1 cells into the fourth mammary fat pad. When tumors reached an average diameter of 4 mm (day 0) and became palpable in all mice, an intravenous injection of doxorubicin (4 mg/kg) was administered once per week during 3 weeks (30) ±daily intraperitoneal injections of MitoTEMPO (0.7 mg/kg) or the same volume of vehicle (DMSO) until the end of the experiment. Tumor volume was determined three times a week using an electronic caliper and normalized to tumor volume at day 0. At the end-point (day +21), mice were sacrificed and their lungs were fixed in formalin. Tissues were stained with hematoxylin & eosin (H&E). Pictures of whole lung slides were acquired with a slide scanner (SCN400, Leica®) and analyzed with the Digital Image Hub software (DIH, Leica®). The area occupied by metastases was normalized to the lung area analyzed.

Experiment [2] concerns MDA-MB-436 cells. As to the kind of experiment: RT-qPCR of biomarker signature after SKQ1. To be noted: 500 nM SKQ1, 48 h. Type of experiment: cell-based, human. Background: Real-time PCR tracks product formation cycle by cycle.
In experiment [3] the test system is MDA-MB-231 cells. As to the kind of experiment: RT-qPCR of biomarker signature after SKQ1. The experiment is classed as cell-based, human. Conditions: 500 nM SKQ1, 48 h. As for the experimental part:
(§1) Total mRNA from MDA-MB-231 or SkBr-3 human breast cancer cells treated ±500 nM SKQ1 for 48 h (Alexandr V. et al. Int. J. Cancer 2016; 139, 130-139) was extracted using the Tri reagent (Brunschwig Chemie®, cat #TR118). mRNAs were quantified by NanoDrop™1000 (Thermo Fisher Scientific®), and were reverse-transcribed in complementary DNAs using the high-capacity cDNA Reverse Transcription Kit (Thermo Fisher Scientific®, cat #4368814) according to manufacturer's protocol. Complementary DNAs (500 ng per sample) were amplified by RT-qPCR using the ROX SYBR Master Mix dTTP Blue (Eurogentec®) and primers listed in Table 5 and Table 6 on a CFX96 Real Time PCR system (BioRad®). Gene expression was normalized to […] gene expression.

Experiment [4] deals with SkBr3 cells. As to the kind of experiment: RT-qPCR of biomarker signature after SKQ1. Type of experiment: cell-based, human. Conditions: 500 nM SKQ1, 48 h. Here is the method: as §1
Experiment [5] deals with 4T1 cells. As to the kind of experiment: Migration towards 0.5% serum, chemotaxis chamber. Type of experiment: cell-based, mouse. Conditions: 16 h pretreatment, 6 h recovery. As for the experimental part:
(§2) Previous to migration and invasion assays, cells were pretreated with the indicated amounts of drugs for 16 h, and left to recover for 6 h in full culture medium. Migration assays were performed in a NeuroProbe® standard 48-well chemotaxis chamber according to manufacturer's instructions. Briefly, the bottom chamber was filled with DMEM containing 0.5% serum as a chemo-attractant. Fifty thousand cells were seeded in the upper chamber in the same medium but without serum ±MitoQ where indicated, and allowed to migrate overnight through an 8-μm pore-size polycarbonate membrane. A similar stimulation protocol was used for invasion assays, with the difference of using Matrigel-coated transwells (Corning®). With MCF7 cells, membranes were previously incubated for 30 min with a solution of Vitronectin 10 μg/ml (Sigma-Aldrich®, #SRP3186). Migrated/invaded cells were fixed and stained with 100 μl of a 0.23% crystal violet solution (Sigma-Aldrich®, #C0775) for 10 min before counting on a SpectraMax™ i3 spectrophotometer equipped with a MiniMax imaging cytometer, using the SoftMax Pro software. Data were normalized to vehicle-treated cells (control).

Experiment [6] has as its system murine 4T1 breast cancer cell line. As to the kind of experiment: Mitochondrial superoxide, mitoSOX FACS. Type of experiment: cell-based, mouse. As for the experimental part:
(§3) Mitochondrial superoxide was measured in cells loaded with 3 μM of MitoSOX (Invitrogen®, catalogue #M36008) for 10 min at 37° C. Cells were gently detached with Accutase® (Thermo Fisher Scientific®, catalogue #A1110501), resuspended in PBS containing 10 mM of D-Glucose and 2% FBS, and immediately analyzed by flow cytometry using a FACSCantoII flow cytometer (BD Biosciences®).

Experiment [7] has as its system human MDA-MB-231 breast cancer cell line. As to the kind of experiment: Mitochondrial superoxide, mitoSOX FACS. The experiment is classed as cell-based. Conditions: increasing doses of cisplatin, 48 h. Here is the method:
as §3

Experiment [8] has as its system MCF7 cells. As to the kind of experiment: Mitochondrial superoxide, mitoSOX FACS. The experiment is classed as cell-based, human. Conditions: DXR 0.1 μg/mL, 24 h. As for the experimental part:
as §3

The subject of experiment [9] is 4T1 cells. As to the kind of experiment: Glucose uptake and lactate release, enzymatic. The experiment is classed as cell-based, mouse. To be noted: DXR 0.1 μg/mL, 24 h. Here is the method: (§4) Cellular oxygen consumption rates (OCRs) were assessed on a Seahorse XF96® bioenergetic analyzer using the Mito Stress® Kit following manufacturer's instructions (Agilent Technologies®). Briefly, 40,000 cells were plated and left to adhere for 24 h before treatment with the indicated doses DXR. Basal mitochondrial oxygen consumption (mtOCR) was identified as the portion of OCR sensitive to 0.5 μM of Complex I inhibitor rotenone together with 0.5 μM of Complex III inhibitor antimycin A. Proton leak corresponded to the portion of mtOCR resistant to 1 μM of ATP synthase inhibitor oligomycin. Maximal OCR was determined after mitochondrial potential disruption using 1 μM of ionophore carbonyl cyanide-4-(trifluoromethoxy)phenylhydrazone (FCCP). At the end of the experiment, cells were lysed in 30 μl of NaOH 0.5 M, and proteins were quantified with the Bradford method in order to normalize data by total protein content. Lactate and glucose concentrations were measured on deproteinized cell supernatants using an ISCUSflex CMA600™ analyzer (Aurora Borealis®), as previously described (Sonveaux et al.; PLoS. One 2012; 7, e33418).

Experiment [10] has as its system 4T1 cells. As to the kind of experiment: Invasion, Matrigel-coated transwells. The experiment is classed as cell-based, mouse. Conditions: low dose DXR, 0.1 μg/mL, 16 h pretreatment, 6 h recovery. Here is the method:
as §2

Experiment [11] has as its system human MCF7 breast cancer cells. As to the kind of experiment: Seahorse XF96 OCR and proton leak. The experiment is classed as cell-based. Conditions: 24 h. Here is the method:
as §4

Experiment [12] relates to MCF7 cells. As to the kind of experiment: Glucose uptake and lactate release, enzymatic. Type of experiment: cell-based, human. To be noted: 24 h. As for the experimental part:
as §4

For experiment [13], the system named is murine 4T1 breast cancer cells. As to the kind of experiment: Seahorse XF96 OCR and proton leak. The experiment is classed as cell-based, mouse. Conditions: 24 h. Here is the method: as §4
The test system of experiment [14] is MCF7 cells. As to the kind of experiment: Migration towards 0.5% serum, chemotaxis chamber. Type of experiment: cell-based, human. To be noted: low dose DXR, 0.1 μg/mL, 16 h pretreatment, 6 h recovery. As for the experimental part: as §2

In the case of `CC1(C)CC(NC(=O)C[P+](c2ccccc2)(c2ccccc2)c2ccccc2)CC(C)(C)N1[O]` [MitoTEMPO], in [1], the “cancer metastasis in breast cancer-bearing animals treated with DXR” value is on record as “inhibit”.

As to `CC1=C(C)C(=O)C(CCCCCCCCCC[P+](c2ccccc2)(c2ccccc2)c2ccccc2)=CC1=O.[Br-]` [SKQ1, [10-(4,5-dimethyl-3,6-dioxo-1,4-cyclohexadien-1-yl)decyl]triphenyl-phosphonium, monobromide], in experiment [2], the “amplitude of the change in ASNS expression” value is listed as “+526%”, the “amplitude of the change in G6PD expression” value is recorded as “+22%”, the “amplitude of the change in SNAI1 expression” value is −12% and the “amplitude of the change in SOX2 expression” value is listed as −67%. Besides, the “genes of the complete biomarker signature with the expected gene expression changes” value in experiment [2] is reported as 14 of the 15. Further, in experiment [2] (P<0.005), the “PHGDH-1 expression increased by” value is given as 2.51 fold, the “PSAT1 expression increased by” value is 2.53 fold, the “TXNRD1 expression increased by” value turned out to be 2.11 fold and the “gene expression of ASNS” value is given as “increased”. Also, in experiment [2] (P<0.005), the “gene expression of NUPR1” value is “increased”, the “gene expression of PCK2” value was “increased” and the “gene expression of SLC6A9” value is given as “increased”. In [2] (P<0.01), the “SERPINE1 expression increased by” value was determined as 1.46 fold and the “SLC7A11 expression increased by” value came to 3.60 fold. Besides, the “gene expression of SOX2” value in [2] (P<0.05) was “decreased”. In addition, the “expected gene expression changes that were statistically significant” value in [2] (among 14 genes) worked out at 10. In [2] (not significant, P=0.0974), the “gene expression of G6PD” value is on record as “increased”. In experiment [2] (not significant, P=0.5663), the “gene expression of NANOG” value is given as “decreased”. In addition, in experiment [2] (not significant, P=0.6013), the “gene expression of SNAI1” value was “decreased”. Besides, in experiment [2] (not significant, P=0.6890), the “gene expression of ZEB1” value is “decreased”. In experiment [3], the “amplitude of the change in NUPR1 expression” value is listed as “+676%”, the “amplitude of the change in SERPIN1 expression” value is recorded as “+63%”, the “amplitude of the change in SNAI1 expression” value is recorded as −21% and the “amplitude of the change in SOX2 expression” value is on record as −52%. The “genes of the complete biomarker signature with the expected gene expression changes” value in experiment [3] is 12 of the 15. For the same molecule, in experiment [3] (P<0.005), the “PHGDH-1 expression increased by” value amounted to 5.36 fold, the “PSAT1 expression increased by” value stood at 3.43 fold, the “SLC7A11 expression increased by” value is 2.35 fold and the “TXNRD1 expression increased by” value stood at 1.69 fold. Besides, in experiment [3] (P<0.005), the “gene expression of ASNS” value is reported as “increased”, the “gene expression of G6PD” value was “increased”, the “gene expression of NUPR1” value is “increased” and the “gene expression of PCK2” value is recorded as “increased”. Further, in experiment [3] (P<0.005), the “gene expression of SLC6A9” value is given as “increased” and the “gene expression of SOX2” value is recorded as “decreased”. Further, the “SERPINE1 expression increased by” value in [3] (P<0.01) is 1.63 fold. The “expected gene expression changes that were statistically significant” value in experiment [3] (among 12 genes) turned out to be 11. Also, the “gene expression of SNAI1” value in experiment [3] (not significant, P=0.4575) is reported as “decreased”. For the same molecule, in experiment [4], the “amplitude of the change in NUPR1 expression” value is given as “+25%”, the “amplitude of the change in SLC7A11 expression” value was “+565%”, the “amplitude of the change in SOX2 expression” value was −95% and the “amplitude of the change in VIM expression” value is listed as −19%. Moreover, in experiment [4], the “genes of the complete biomarker signature with the expected gene expression changes” value is 13 of the 15. Besides, in experiment [4] (P<0.005), the “SLC7A11 expression increased by” value is 6.65 fold, the “TXNRD1 expression increased by” value is 3.20 fold, the “gene expression of PCK2” value was “increased” and the “gene expression of SOX2” value is recorded as “decreased”. In experiment [4] (P<0.01), the “PHGDH-1 expression increased by” value is given as 2.26 fold, the “PSAT1 expression increased by” value is recorded as 2.26 fold and the “gene expression of ASNS” value is “increased”. Further, the “gene expression of ZEB1” value in [4] (P<0.05) is given as “decreased”. Moreover, the “SERPINE1 expression increased by” value in [4] (P=0.0732) turned out to be 1.45 fold. Moreover, the “expected gene expression changes that were statistically significant” value in [4] (among 13 genes) is listed as 8. Moreover, in [4] (not significant, P=0.1539), the “gene expression of NANOG” value was “decreased”. For the same molecule, in experiment [4] (not significant, P=0.2615), the “gene expression of NUPR1” value was “increased”. Besides, in experiment [4] (not significant, P=0.3557), the “gene expression of VIM” value is given as “decreased”. Further, in experiment [4] (only 2 replicates), the “gene expression of G6PD” value was “increased”.

As for `N.N.[Cl][Pt][Cl]` [cisplatin], the cancer cell migration result in experiment [5] (cisplatin 77.76 μM) is recorded as “induced”. For the same molecule, the “mitochondrial superoxide production at the ETC” value in experiment [6] (increasing doses of cisplatin, 48 h) was “induce”; in experiment [7], “induce”.

Turning to `COc1cccc2c1C(=O)c1c(O)c3c(c(O)c1C2=O)C[C@@](O)(C(=O)CO)C[C@@H]3O[C@H]1C[C@H](N)[C@H](O)[C@H](C)O1` [doxorubicin], the cell migration result in experiment [5] (low dose DXR, 0.1 μg/mL) was “stimulated”; in experiment [14] it was “stimulated”. Besides, the “production of mitochondrial superoxide at the ETC” value was “increased production” in experiment [8] and “increased production” in experiment [6] (DXR 0.1 μg/mL, 24 h). Further, the glycolysis result in [9] and in [12] (DXR 0.1 to 0.01 μg/mL range) was “little effect” in each case. In addition, in experiment [9], the lactate release entry was “significantly decreasing”. Besides, in [10], the cell invasion entry is listed as “stimulated”. The “mitochondrial oxygen consumption rate (mtOCR)” value in [11] (DXR low doses, 0.1 to 0.01 μg/mL) is given as “increased”. Also, the “leak of protons at the electron transport chain (ETC)” value in experiment [11] (increasing doses of DXR) and in experiment [13] (increasing doses of DXR) was “dose dependent leak” in each case. Further, the glucose uptake result in experiment [12] (DXR 0.1 μg/mL) is on record as “significantly increasing”. The mtOCR result in [13] (Low-dose DXR) is given as “increased”.

(Values after patent US20250270648A1, “MOLECULAR SIGNATURE FOR ASSESSING THE RESPONSIVENESS OF CANCER TO MITOCHONDRIA-TARGETED ANTIOXIDANTS” (UNIVERSITÉ CATHOLIQUE DE LOUVAIN, priority 2021, published 2025).)
